Marks after values point to notes of the source that are not given here.
How the values were obtained:
Plasmopara viticola = assay: Test D: grape downy mildew, spray after inoculation of grape seedlings; format: in vivo
Source text: Upon removal, disease ratings were made. […] A dash (-) indicates no test results.

Phytophthora infestans = assay: whole plant or invertebrate; format: in vivo
Septoria tritici = assay: Test J: wheat leaf blotch, preventive spray on wheat seedlings; format: in vivo
Source text: A dash (-) indicates no test results.

fusarium graminearium = assay: Test I: wheat head scab, preventive spray on wheat seedlings
Description: (the causal agent of wheat head scab) and incubated in a saturated atmosphere at 20° C. for 72 h, and then moved to a growth chamber at 22° C. for 5 days, after which disease ratings were made.

[1] = tested on: Puccinia recondita f. sp. tritici; assay: Test K: wheat leaf rust, preventive spray on wheat seedlings
Botrytis cinerea = assay: Test E: tomato botrytis, preventive spray on tomato seedlings
Septoria nodorum = assay: Test H: wheat glum blotch, preventive spray on wheat seedlings
Description: (the causal agent of wheat glum blotch) and incubated in a saturated atmosphere at 20° C. for 48 h, and then moved to a growth chamber at 22° C. for 5 days, after which disease ratings were made.

[2] = tested on: Erysiphe graminis f. sp. tritici; assay: Test L: wheat powdery mildew, preventive spray on wheat seedlings
Sclerotinia sclerotiorum = assay: Test C: cucumber white mold, preventive spray on cucumber seedlings
Pythium aphanidermatum = assay: Test A: bluegrass pythium blight, preventive spray on bluegrass seedlings
Rhizoctonia oryzae = assay: Test G: turf brown patch, preventive spray on creeping bent grass seedlings
Description: (the causal agent of turf brown patch) and incubated in a saturated atmosphere at 27° C. for 24 h, and then moved to a growth chamber at 27° C. for 5 days, after which disease ratings were made.

[3] = tested on: Colletotrichum orbiculare; assay: Test B: cucumber Colletotrichum anthracnose, preventive spray on cucumber seedlings
[4] = 200 ppm, 100 = 100% disease control, 0 = no control

Compound | Test D disease control rating (Plasmopara viticola; 200 ppm) | Test F disease control rating (Phytophthora infestans; 200 ppm) | Test I disease control rating (fusarium graminearium; 200 ppm) | Test K disease control rating ([1]; 200 ppm) | Test E disease control rating (Botrytis cinerea; 200 ppm) | Test H disease control rating (Septoria nodorum; 200 ppm) | Test L disease control rating ([2]; 200 ppm) | Test C disease control rating (Sclerotinia sclerotiorum; 200 ppm) | Test A disease control rating (Pythium aphanidermatum; 200 ppm) | Test G disease control rating (Rhizoctonia oryzae; 200 ppm) | Test B disease control rating ([3]; 200 ppm) | further results
CCC(C)Cn1c(-c2ccc(F)cc2Cl)c(Cl)nc(-n2ccc(Br)n2)c1=O (racemic) [compound 259] |  |  |  |  |  |  |  |  |  |  |  | Test D disease control rating (Plasmopara viticola; [4]): 0%; Test F disease control rating (Phytophthora infestans; [4]): 0%; Test J disease control rating (Septoria tritici; [4]): 100%; Test I disease control rating (fusarium graminearium; [4]): 0%; Test K disease control rating [1, 4]: 89%; Test E disease control rating (Botrytis cinerea; [4]): 100%; Test H disease control rating (Septoria nodorum; [4]): 0%; Test L disease control rating [2, 4]: 59%; Test C disease control rating (Sclerotinia sclerotiorum; [4]): 0%; Test A disease control rating (Pythium aphanidermatum; [4]): 82%; Test G disease control rating (Rhizoctonia oryzae; [4]): 16%; Test B disease control rating [3, 4]: 94%
CC(C)Cn1c(-c2c(F)cccc2F)c(Cl)nc(-c2cn(C)cn2)c1=O [Compound 85, 5-Chloro-6-(2,6-difluorophenyl)-1-(2-methylpropyl)-3-(1-methyl-1H-imidazol-4-yl)-2(1H)-pyrazinone] |  |  |  |  |  |  |  |  |  |  |  | pest or weed control at 200 ppm (Plasmopara viticola; Plasmopara viticola, 168 h, 200 ppm, read-out: Test D disease control rating): 0%; pest or weed control at 200 ppm (Phytophthora infestans; Phytophthora infestans, in Solanum lycopersicum, topical, 144 h, read-out: Test F disease control rating): 0%; pest or weed control at 200 ppm (Septoria tritici; Zymoseptoria tritici, 528 h, 200 ppm, read-out: Test J disease control rating): 100%; pest or weed control at 200 ppm (fusarium graminearium; Fusarium, in Triticum aestivum, topical, 192 h, read-out: Test I disease control rating, 200 ppm): 55%; pest or weed control at 200 ppm ([1]; Puccinia recondita, in Triticum aestivum, 192 h, read-out: Test K disease control rating): 99%; pest or weed control at 200 ppm (Botrytis cinerea; Botrytis cinerea, in Solanum lycopersicum, topical, 72 h, read-out: Test E disease control rating): 100%; pest or weed control at 200 ppm (Septoria nodorum; Parastagonospora nodorum, in Triticum aestivum, topical, 168 h, read-out: Test H disease control rating, 200 ppm): 97%; pest or weed control at 200 ppm ([2]; Blumeria graminis, in Triticum aestivum, 168 h, read-out: Test L disease control rating, 200 ppm): 0%; pest or weed control at 200 ppm (Sclerotinia sclerotiorum; Sclerotinia sclerotiorum, in Cucumis sativus, 168 h, read-out: Test C disease control rating, 200 ppm): 95%; pest or weed control at 200 ppm (Pythium aphanidermatum; Pythium aphanidermatum, 120 h, read-out: Test A disease control rating): 0%; pest or weed control at 200 ppm ([3]; Colletotrichum orbiculare, in Cucumis sativus, 144 h, read-out: Test B disease control rating, 200 ppm): 80%
CC(C)Cn1c(-c2c(Cl)cccc2Cl)c(Cl)nc(-n2cncn2)c1=O [compound 40] | 0% | 0% | 0% | 99% | 100% | 99% | 21% | 0% | 0% | 65% | 0% | 
CC(C)Cn1c(-c2cccc(Cl)c2Cl)c(Cl)nc(-n2cccn2)c1=O [compound 41] | 8% | 0% | 0% | 83% | 100% | 100% | 0% | 98% | 0% | 47% | 68% | 
CC(C)Cn1c(-c2cc(Cl)cc(Cl)c2)c(Cl)nc(-n2cccn2)c1=O [compound 42] | 0% | 0% | 60% | 0% | 0% | 0% | 0% | 0% | 0% | 0% | 0% | 
CC(C)Cn1c(-c2ccc(Cl)cc2F)c(Cl)nc(-n2cncn2)c1=O [compound 44] |  |  |  |  |  |  |  |  |  |  |  | Test D disease control rating (Plasmopara viticola; 40 ppm (*)): 0* %; Test F disease control rating (Phytophthora infestans; 40 ppm (*)): 0* %; Test I disease control rating (fusarium graminearium; 40 ppm (*)): 0* %; Test K disease control rating ([1]; 40 ppm (*)): 0* %; Test E disease control rating (Botrytis cinerea; 40 ppm (*)): 95* %; Test H disease control rating (Septoria nodorum; 40 ppm (*)): 0* %; Test L disease control rating ([2]; 40 ppm (*)): 0* %; Test C disease control rating (Sclerotinia sclerotiorum; 40 ppm (*)): 0* %; Test A disease control rating (Pythium aphanidermatum; 40 ppm (*)): 0* %; Test G disease control rating (Rhizoctonia oryzae; 40 ppm (*)): 16* %; Test B disease control rating ([3]; 40 ppm (*)): 0* %
CC(C)Cn1c(-c2ccc(C(F)(F)F)cc2F)c(Cl)nc(-n2cccn2)c1=O [compound 46] | 0% | 0% | 78% | 0% | 0% | 0% | 0% | 0% | 0% | 0% | 0% | 
CC(C)=NNc1nc(Cl)c(-c2c(F)cccc2F)n(CC(C)C)c1=O [compound 48] | 0% | 0% | 0% | 80% | 83% | 0% | 0% | 0% | 0% | 16% | 0% | 
COc1nc(-n2cccn2)c(=O)n(C2CCCCC2)c1-c1c(F)cccc1F [compound 49] | 8% | 0% | 0% | 0% | 47% | 0% | 21% | 0% | 0% | 16% | 0% | 
CC(C)Cn1c(-c2ccc(F)cc2Cl)c(Cl)nc(-n2cncn2)c1=O [compound 51] | 0% | 0% | 94% | 100% | 100% | 100% | 63% | 99% | 0% | 31% | 98% | 
CC(C)Cn1c(-c2cccc(F)c2F)c(Cl)nc(-n2cncn2)c1=O [compound 52] | 0% | 0% | 0% | 74% | 98% | 98% | 21% | 90% | 0% | 16% | 0% | 
CC(C)Cn1c(-c2cc(F)ccc2F)c(Cl)nc(-n2cncn2)c1=O [compound 54] | 0% | 0% | 0% | 98% | 100% | 90% | 0% | 92% | 0% | 84% | 0% | 
CC(C)Cn1c(-c2c(F)ccc(F)c2F)c(Cl)nc(-n2cncn2)c1=O [compound 55] | 0% | 0% | 78% | 99% | 100% | 95% | 0% | 85% | 0% | 96% | 0% | 
CCC(C)Cn1c(-c2c(F)cccc2F)c(Cl)nc(-n2ccnc2C)c1=O (stereo not drawn) [compound 69] | 0% | 0% | 0% |  |  |  |  | 0% | 0% |  |  | Test J disease control rating (Septoria tritici; 40 ppm (*)): 62* %; Test K disease control rating ([1]; 40 ppm (*)): 61* %; Test E disease control rating (Botrytis cinerea; 40 ppm (*)): 0* %; Test H disease control rating (Septoria nodorum; 40 ppm (*)): 0* %; Test L disease control rating ([2]; 40 ppm (*)): 0* %; Test G disease control rating (Rhizoctonia oryzae; 40 ppm (*)): 0* %
CC(C)Cn1c(-c2c(F)cccc2F)c(Cl)nc(-c2cncn2C)c1=O [compound 83] | 0% | 47% | 0% | 79% | 0% | 0% | 0% | 64% | 0% |  | 9% | Test J disease control rating (Septoria tritici; 200 ppm): 18%
CC(C)Cn1c(-c2ccc3ccccc3c2)c(Cl)nc(-n2cccn2)c1=O [compound 90] | 16% | 0% | 0% | 0% | 0% | 0% | 0% | 63% | 0% |  | 0% | Test J disease control rating (Septoria tritici; 200 ppm): 0%
